The source of these data is patent US20100137232A1 (priority 2004, published 2010).

Usually half-life stands for the time in which the quantity being followed falls by half.

For series [1] the following is noted: cited from earlier work.
For series [2] the following is noted: humans, cited from earlier work.
The test system of a further series is stromal proteins. Particulars: cited from earlier work.
The conditions of series [3]: in vivo. From the text: In the specification, the terms ‘eye-acceptable’ and ‘acceptable to the eye’ (as well as similar terms) are intended to mean that no lachrymatory effect is seen and/or no irritation of, and/or damage to, the surface of the eye (cornea) and/or the surrounds of the eye (the lids, tear ducts etc.) and/or the deeper structures within the eye (lens, muscles etc.).

SMILES strings stand for the structures.

Regarding `C[C@H]1O[C@@H](O[C@H]2[C@@H](O)C[C@H](O[C@H]3[C@@H](O)C[C@H](O[C@H]4CC[C@@]5(C)[C@H](CC[C@@H]6[C@@H]5C[C@@H](O)[C@]5(C)[C@@H](C7=CC(=O)OC7)CC[C@]65O)C4)O[C@@H]3C)O[C@@H]2C)C[C@H](O)[C@@H]1O` [Digoxin], the solubility in chloroform entry in series [1] (chloroform) is on record as “slightly soluble”. Also, in series [1] (diluted (50%) alcohol), the “solubility in diluted (50%) alcohol” value is “slightly soluble”. For the same compound, the solubility in ether result in series [1] (ether) was “practically insoluble”. Moreover, the solubility in pyridine entry in series [1] (pyridine) is reported as “freely soluble”. Besides, the solubility in water entry in series [1] (water) is reported as “practically insoluble”. For the same compound, the bioavailability entry in series [2] (calculated from an oral dosage form) is “about 80%”. For the same compound, the half-life in series [2] (oral dosage form) was 42 h.

With `CCO` [ethanol], the “toxic effect on stromal proteins” value in the series with stromal proteins is recorded as “direct toxic effect”. In addition, the “maximum concentration which is acceptable in and to the eye” value in series [3] amounted to 2.5 v/v %.
